US10334851B2, “Herbicidal isoxazolo[5,4-B]pyridines” (BASF SE, priority 2010, dated 2019)

What was measured:
Format in all cases: in vivo
Matricaria inodora = assay: Greenhouse post-emergence treatment of Matricaria inodora (horse daisy); details: application rate 2.0 kg/ha, scale 0 (no damage) to 100 (complete destruction)
From the text: (§1) The seeds of the test plants were sown separately for each species. For the post-emergence treatment, the test plants were first grown to a height of 3 to 15 cm, depending on the plant habit, and only then treated with the active ingredients which had been suspended or emulsified in water. For this purpose, the test plants were either sown directly and grown in the same containers, or they were first grown separately as seedlings and transplanted into the test containers a few days prior to treatment. Depending on the species, the plants were kept at 10-25° C. or 20-35° C. The test period extended over 2 to 4 weeks. During this time, the plants were tended, and their response to the individual treatments was evaluated. Evaluation was carried out using a scale from 0 to 100. 100 means no emergence of the plants, or complete destruction of at least the aerial moieties, and 0 means no damage, or normal course of growth. A good herbicidal activity is given at values of at least 80 and a very good herbicidal activity is given at values of at least 90. The plants used in the greenhouse experiments belonged to the following species: [table]

Abutilon theophrasti = assay: Greenhouse post-emergence treatment of Abutilon theophrasti (velvetleaf); details: scale 0 (no damage) to 100 (complete destruction); for pest or weed control at 2000 g/ha / pest or weed control at 3000 g/ha: Abutilon theophrasti
From the text: as §1

Setaria faberi = assay: Greenhouse post-emergence treatment of Setaria faberi (giant foxtail); details: for damage: scale 0 to 100; for pest or weed control at 2000 g/ha / pest or weed control at 3000 g/ha: scale 0 to 100, read-out: damage
From the text: as §1

Agrostis stolonifera L. = assay: Greenhouse post-emergence treatment of Agrostis stolonifera L. (white bent); details: application rate 2.0 kg/ha, scale 0 (no damage) to 100 (complete destruction)
From the text: as §1

Chenopodium album = assay: Greenhouse post-emergence treatment of Chenopodium album (fat-hen); details: application rate 1.0 kg/ha; for damage: scale 0 to 100; for pest or weed control at 1000 g/ha: scale 0 to 100, read-out: damage
From the text: as §1

Lolium multiflorum = assay: Greenhouse post-emergence treatment of Lolium multiflorum (italian ryegrass); details: application rate 1.0 kg/ha, scale 0 (no damage) to 100 (complete destruction)
From the text: as §1

Avena fatua = assay: Greenhouse post-emergence treatment of Avena fatua (spring-wild oat); details: scale 0 (no damage) to 100 (complete destruction)
From the text: as §1

Alopecurus myosuroides = assay: Greenhouse post-emergence treatment of Alopecurus myosuroides (blackgrass); details: application rate 1.0 kg/ha, scale 0 (no damage) to 100 (complete destruction)
From the text: as §1

Polygonum convolvulus = assay: Greenhouse post-emergence treatment of Polygonum convolvulus (wild buckwheat); details: application rate 1.0 kg/ha, scale 0 to 100
From the text: as §1

[1] = system: Amaranthus retroflexus L.; assay: Greenhouse post-emergence treatment of Amaranthus retroflexus L. (pigweed); details: application rate 1.0 kg/ha, scale 0 to 100
From the text: as §1

## CCOC(=O)C1=C(COC(=O)c2cc(C3CC3)nc3onc(C)c23)NC(=O)NC1 [I.1.2]
Matricaria inodora
  damage: 90%

## Cc1noc2nc(C3CC3)cc(C(=O)OCC#N)c12 [I.1.6]
Abutilon theophrasti; application rate 3.0 kg/ha
  damage: 100%
Setaria faberi; application rate 3.0 kg/ha
  damage: 95%

## Cc1noc2nc(C3CC3)cc(C(=O)OCc3nc(-c4cccs4)no3)c12 [I.1.10]
Agrostis stolonifera L.
  damage: 90%
Matricaria inodora
  damage: 85%

## Cc1noc2nc(C3CC3)cc(C(=O)OCc3nc4ccccc4o3)c12 [I.1.21]
Chenopodium album
  damage: 100%
Lolium multiflorum
  damage: 100%

## Cc1noc2nc(C3CC3)cc(C(=O)OC(C)C(N)=O)c12 (stereo not drawn) [I.1.24]
Matricaria inodora
  damage: 100%

## COc1ccc(-c2nc(COC(=O)c3cc(C4CC4)nc4onc(C)c34)co2)cc1 [I.1.31]
Agrostis stolonifera L.
  damage: 85%
Matricaria inodora
  damage: 95%

## CCCN(CC1CC1)C(=O)COC(=O)c1cc(C2CC2)nc2onc(C)c12 [I.1.35]
Abutilon theophrasti; application rate 3.0 kg/ha
  damage: 90%
Avena fatua; application rate 3.0 kg/ha
  damage: 85%

## COC(=O)c1cc(C2CC2)nc2onc(C)c12 [I.1.39]
Agrostis stolonifera L.
  damage: 90%
Avena fatua; application rate 2.0 kg/ha
  damage: 85%

## Cc1noc2nc(C3CC3)cc(C(=O)OCC(=O)OC(C)(C)C)c12 [I.1.43]
Alopecurus myosuroides
  damage: 80%
Avena fatua; application rate 1.0 kg/ha
  damage: 90%

## CCc1ccc(C(=O)COC(=O)c2cc(C3CC3)nc3onc(C)c23)s1 [I.1.49]
Agrostis stolonifera L.
  damage: 85%
Matricaria inodora
  damage: 98%

## CCOC(=O)c1cc(C2CC2)nc2onc(C)c12 [I.1.63]
Avena fatua; application rate 3.0 kg/ha
  damage: 80%

## Cc1noc2nc(C3CC3)cc(C(=O)OCC(F)(F)F)c12 [I.1.67]
Abutilon theophrasti; application rate 3.0 kg/ha
  damage: 100%
Avena fatua; application rate 3.0 kg/ha
  damage: 95%

## Cc1noc2nc(C3CC3)cc(C(=O)O)c12 [I.2.1]
Abutilon theophrasti; application rate 2.0 kg/ha
  pest or weed control at 2000 g/ha: 95%
Setaria faberi; application rate 2.0 kg/ha
  pest or weed control at 2000 g/ha: 100%

## CC(C)(C)Cc1noc2nc(C3CC3)cc(C(=O)O)c12 [I.2.2]
Abutilon theophrasti; application rate 2.0 kg/ha
  damage: 100%
Setaria faberi; application rate 2.0 kg/ha
  damage: 90%

## CCCc1noc2nc(C3CC3)cc(C(=O)O)c12 [I.2.3]
Abutilon theophrasti; application rate 3.0 kg/ha
  damage: 100%
Setaria faberi; application rate 3.0 kg/ha
  damage: 85%

## O=C(O)c1cc(C2CC2)nc2onc(-c3ccco3)c12 [I.2.4]
Matricaria inodora
  damage: 98%

## O=C(O)c1cc(C2CC2)nc2onc(-c3ccccc3)c12 [I.2.5]
Abutilon theophrasti; application rate 3.0 kg/ha
  damage: 100%
Setaria faberi; application rate 3.0 kg/ha
  damage: 80%

## CC(C)c1noc2nc(C3CC3)cc(C(=O)O)c12 [I.2.6]
Abutilon theophrasti; application rate 3.0 kg/ha
  pest or weed control at 3000 g/ha: 100%
Setaria faberi; application rate 3.0 kg/ha
  pest or weed control at 3000 g/ha: 95%

## O=C(O)c1cc(C2CC2)nc2onc(C3CC3)c12 [I.2.7]
Abutilon theophrasti; application rate 3.0 kg/ha
  pest or weed control at 3000 g/ha: 100%
Setaria faberi; application rate 3.0 kg/ha
  pest or weed control at 3000 g/ha: 100%

## COc1ccc(-c2noc3nc(C4CC4)cc(C(=O)O)c23)cc1 [I.2.8]
Abutilon theophrasti; application rate 3.0 kg/ha
  damage: 100%
Setaria faberi; application rate 3.0 kg/ha
  damage: 80%

## O=C(O)c1cc(C2CC2)nc2onc(C(F)(F)F)c12 [I.2.10]
Abutilon theophrasti; application rate 3.0 kg/ha
  pest or weed control at 3000 g/ha: 90%
Setaria faberi; application rate 3.0 kg/ha
  pest or weed control at 3000 g/ha: 85%

## O=C(O)c1cc(C2CC2)nc2onc(CCc3ccccc3)c12 [I.2.11]
Abutilon theophrasti; application rate 3.0 kg/ha
  damage: 100%
Setaria faberi; application rate 3.0 kg/ha
  damage: 100%

## O=C(O)c1cc(C2CC2)nc2onc(C3CCC3)c12 [I.2.12]
Abutilon theophrasti; application rate 3.0 kg/ha
  pest or weed control at 3000 g/ha: 100%
Setaria faberi; application rate 3.0 kg/ha
  pest or weed control at 3000 g/ha: 90%

## CC1CC1c1noc2nc(C3CC3)cc(C(=O)O)c12 (stereo not drawn) [I.2.13]
Abutilon theophrasti; application rate 2.0 kg/ha
  pest or weed control at 2000 g/ha: 100%
Setaria faberi; application rate 2.0 kg/ha
  pest or weed control at 2000 g/ha: 95%

## O=C(O)c1cc(C2CC2)nc2onc(C3CCCC3)c12 [I.2.14]
Abutilon theophrasti; application rate 3.0 kg/ha
  pest or weed control at 3000 g/ha: 100%
Setaria faberi; application rate 3.0 kg/ha
  pest or weed control at 3000 g/ha: 90%

## O=C(O)c1cc(C2CC2)nc2onc(-c3cccnc3)c12 [I.2.15]
Abutilon theophrasti; application rate 3.0 kg/ha
  pest or weed control at 3000 g/ha: 85%
Setaria faberi; application rate 3.0 kg/ha
  pest or weed control at 3000 g/ha: 100%

## O=C(O)c1cc(C2CC2)nc2onc(-c3ccncc3)c12 [I.2.16]
Abutilon theophrasti; application rate 3.0 kg/ha
  pest or weed control at 3000 g/ha: 85%
Setaria faberi; application rate 3.0 kg/ha
  pest or weed control at 3000 g/ha: 100%

## O=C(O)c1cc(C2CC2)nc2onc(-c3ccc(-c4ccccc4)cc3)c12 [I.2.19]
Abutilon theophrasti; application rate 3.0 kg/ha
  damage: 100%
Setaria faberi; application rate 3.0 kg/ha
  damage: 85%

## O=C(O)c1cc(C2CC2)nc2onc(-c3ccc(Br)cc3)c12 [I.2.20]
Abutilon theophrasti; application rate 3.0 kg/ha
  damage: 100%
Setaria faberi; application rate 3.0 kg/ha
  damage: 95%

## O=C(O)c1cc(C2CC2)nc2onc(-c3ccccc3Br)c12 [I.2.59]
Chenopodium album
  damage: 95%
Polygonum convolvulus
  damage: 90%

## O=C(O)c1cc(C2CC2)nc2onc(-c3ccccc3OC(F)F)c12 [I.2.64]
[1]
  damage: 100%
Polygonum convolvulus
  damage: 80%

## O=C(O)c1cc(C2CC2)nc2onc(-c3ccc([N+](=O)[O-])cc3)c12 [I.2.65]
[1]
  damage: 100%
Polygonum convolvulus
  damage: 100%

## Cc1ccsc1-c1noc2nc(C3CC3)cc(C(=O)O)c12 [I.2.69]
Chenopodium album
  pest or weed control at 1000 g/ha: 95%
Polygonum convolvulus
  damage: 85%

## Cc1noc2nc(-c3ccc(OC(F)F)cc3)cc(C(=O)O)c12 [I.5.13]
Setaria faberi; application rate 3.0 kg/ha
  damage: 95%

## CC(C)c1noc2nc(-c3ccc(F)cc3)cc(C(=O)O)c12 [I.7.4]
Setaria faberi; application rate 3.0 kg/ha
  damage: 80%

## COc1ccccc1-c1cc(C(=O)O)c2c(C(C)C)noc2n1 [I.7.7]
Setaria faberi; application rate 3.0 kg/ha
  damage: 85%

## CCc1cc(C(=O)O)c2c(C3CC3)noc2n1 [I.7.17]
Abutilon theophrasti; application rate 3.0 kg/ha
  pest or weed control at 3000 g/ha: 100%
Setaria faberi; application rate 3.0 kg/ha
  pest or weed control at 3000 g/ha: 90%

## Cc1noc2nc(C3(F)CC3)cc(C(=O)O)c12 [I.7.51]
Setaria faberi; application rate 3.0 kg/ha
  pest or weed control at 3000 g/ha: 90%

## O=C(O)c1cc(C2(F)CC2)nc2onc(-c3ccc(C(F)(F)F)cc3)c12 [I.7.59]
[1]
  damage: 100%
Polygonum convolvulus
  damage: 100%

## O=C(O)c1cc(C2(F)CC2)nc2onc(-c3ccc(Br)cc3)c12 [I.7.60]
[1]
  damage: 100%
Polygonum convolvulus
  damage: 100%

## CCCCc1noc2nc(C3(F)CC3)cc(C(=O)O)c12 [I.7.66]
Chenopodium album
  damage: 100%
Polygonum convolvulus
  damage: 100%

## CC(C)c1noc2nc(C3(F)CC3)cc(C(=O)O)c12 [I.7.67]
Chenopodium album
  pest or weed control at 1000 g/ha: 100%
Polygonum convolvulus
  damage: 100%

## CC(C)(C)Cc1noc2nc(C3(F)CC3)cc(C(=O)O)c12 [I.7.69]
[1]
  damage: 100%
Polygonum convolvulus
  damage: 100%
